Columns and labels:
[1] = Continuous flow mixing of stabilizer solution with sodium hypochlorite: temperature excursion and pH change; format: physicochemical; conditions: for ΔpH: 12.2% NaOCl (initial pH 12.6); for ΔT: 12.2% NaOCl
Experimental: For each data point, the combined flow rates of the stabilizer and hypochlorite solutions were adjusted in order to maintain the desired molar ratio of NaOCl to active ingredient (A.I.). The solution temperature was recorded before the onset of flow and after combination with the hypochlorite solution. In addition, the final pH of the resulting collected solution was recorded after a 2 min interval of continuous flow.
Stabilizer solutions of the present invention were prepared via dissolution of at least one substituted N-hydrogen compound (DMH=5,5-dimethylhydantoin and/or Amine=ethanolamine, morpholine) (i), and of at least one additional containing nitrogen compound (ii) in water with the pH adjusted to 7-9.5, if necessary. […]
Sodium hypochlorite solutions were used directly at high concentration (12.2%).
Consistent with known ammonia and urea chemistry (vide supra), mixing a halogen source and ammonium salt solutions at Cl2:N ratios greater than 1 (e.g., 2-4) usually results in substantial exothermic temperature excursions (ΔT, in Kelvin) and reductions in pH due to decomposition reactions that occur.

[2] = high pH (12.4-13.4); Cl2:urea ratios of 1:1-2:1; WO 2007/089539 A2 / US 2007/0178173 A1; cited from earlier work
[3] = tested on: Enterobacter aerogenes (ATCC 13048) and Pseudomonas aeruginosa (ATCC 15442); experiment: Biocidal efficacy in paper pulp slurry (modified ASTM E: 1839-07); format: cell-based; conditions: 2 ppm total Cl2, 3 h, 34° C., DMH 1.81 ppm alone
Experimental: The conditions of the experiment were a modification of the method described in ASTM E: 1839-07. A 1% pulp slurry was prepared via shredding white laser printer paper and adding to an appropriate amount of 400 ppm alkalinity (as CaCO3) water solution. The slurry was rapidly mixed while heating to 98(±2) ° C., followed by cooling to room temperature. The pH was adjusted to 8.5 with 1N H2SO4 and the slurry was diluted to 0.5% with deionized water. A 98(±1) mL aliquot was transferred to a 125 mL sample flask and steam sterilized and cooled to room temperature prior to use.
Stock solutions of NaOCl at either 51,000 ppm or 400 ppm (as Cl2) were freshly prepared prior to the organism challenge test. Dilutions of the test samples were made in order to prepare a sample solution at the desired Cl2:Active Ingredient molar ratio and the flasks were dosed according to the target total Cl2 desired (2 ppm total Cl2).
Twenty four hour cultures of Enterobacter aerogenes (ATCC 13048) and Pseudomonas aeruginosa (ATCC 15442) were used for the testing. Microbiological counts were performed using tryptic soy agar (TSA) […] by known pour plate techniques. Final bacterial concentration of the inoculum was between 2×10^6 and 1×10^7 CFU/mL. 1 mL of the inoculum was then placed into each of the sample to be tested and the samples placed onto a shaker for 3 hours at 34° C. After the 3 hour contact time, DIFCO Dey-Engley (D/E) Neutralizing Broth was used as the first serial dilution tube for biocide neutralization and dilutions were plated through 10^6.

[4] = 5% active ingredients, Cl2:NH3 or Cl2:Urea 2.5
[5] = 15% active ingredients, Cl2:NH3 or Cl2:Urea 8
[6] = 15% active ingredients, Cl2:NH3 or Cl2:Urea 2
[7] = 15% active ingredients, Cl2:NH3 or Cl2:Urea 4
[8] = 17% active ingredients, Cl2:NH3 or Cl2:Urea 4

Q: Which ΔpH [1, 4] does the source give for NC(N)=O [Urea, urea] here?
A: Its ΔpH is −0.5.

Q: What about the ΔpH [1, 5] of the same compound?
A: The ΔpH was −0.7.

Q: And the ΔT [1, 4]?
A: The ΔT was 18 K.

Q: What about the ΔT [1, 5] of the same compound?
A: The ΔT was 36 K.

Q: And the total halogen yield [2]?
A: The total halogen yield was 48-69%.

Q: For CC1(C)NC(=O)NC1=O [DMH, 5,5-dimethylhydantoin], which “Efficacy (Δlg)” value ([3]; box paper pulp slurry) is on record?
A: The value was 0.1 Δlg.

Q: And the “Efficacy (Δlg)” value ([3]; fine paper pulp slurry (Table 3 series))?
A: The value was 3.2 Δlg.

Q: And the “Efficacy (Δlg)” value ([3]; fine paper pulp slurry (Table 4 series))?
A: The value was 2.9 Δlg.

Q: For Br.N [NH4Br, ammonium bromide], which ΔpH [1, 6] is on record?
A: Its ΔpH is −9.5.

Q: And the ΔpH [1, 7]?
A: The ΔpH was −5.3.

Q: What about the ΔpH [1, 8] of the same compound?
A: The ΔpH was −5.3.

Q: And the ΔT [1, 6]?
A: The ΔT was 37 K.

Q: What about the ΔT [1, 7] of the same compound?
A: Its ΔT is 31 K.

Q: What about the ΔT [1, 8] of the same compound?
A: The ΔT was 34 K.

Source: patent publication US8933244B2, “Stabilized active halogen solutions” (Lonza Inc., priority 2009, dated 2015)
